Measured values from ChEMBL document CHEMBL1177675, “Synthesis and antiproliferative evaluation of certain iminonaphtho[2,3-b]furan derivatives” (Bioorg Med Chem, 2010).
Activity calls are given as the source filed them. The calls are words filed in the database; no cut-off is given here.

Assays:
MCF7 [1] = test: Cytotoxicity against human MCF7 cells at 4 ug/ml after 48 hrs by sulforhodamine B assay relative to control; assay type: functional
NCI-H460 [2] = test: Cytotoxicity against human NCI-H460 cells at 4 ug/ml after 48 hrs by sulforhodamine B assay relative to control; assay type: functional
SF-268 [3] = test: Cytotoxicity against human SF268 cells at 4 ug/ml after 48 hrs by sulforhodamine B assay relative to control; assay type: functional
MCF7 [4] = test: Cytotoxicity against human MCF7 cells after 72 hrs by XTT assay; assay type: functional; details: MCF7, 72 h
NCI-H460 [5] = test: Cytotoxicity against human NCI-H460 cells after 72 hrs by XTT assay; assay type: functional; details: NCI-H460, 72 h
SF-268 [6] = test: Cytotoxicity against human SF268 cells after 72 hrs by XTT assay; assay type: functional; details: SF-268, 72 h
[7] = Cytotoxicity against human Detroit 551 cells after 72 hrs by XTT assay; assay type: cell-based
MCF7 [8] = test: Selectivity index, ratio of GI50 for human Detroit 551 cells to GI50 for human MCF7 cells; assay type: functional
NCI-H460 [9] = test: Selectivity index, ratio of GI50 for human Detroit 551 cells to GI50 for human NCI-H460 cells; assay type: functional
SF-268 [10] = test: Selectivity index, ratio of GI50 for human Detroit 551 cells to GI50 for human SF268 cells; assay type: functional
K562 [11] = test: Cytotoxicity against human K562 cells after 72 hrs by XTT assay; assay type: functional; details: K562, 72 h
K562 [12] = test: Selectivity index, ratio of GI50 for human Detroit 551 cells to GI50 for human K562 cells; assay type: functional
K562 [13] = test: Cell cycle arrest in human K562 cells assessed as accumulation at G0/G1 phase at 1 uM after 24 hrs using propidium iodide staining by flow cytometry; assay type: functional
K562 [14] = test: Cell cycle arrest in human K562 cells assessed as accumulation at S phase at 1 uM after 24 hrs using propidium iodide staining by flow cytometry; assay type: functional
K562 [15] = test: Cell cycle arrest in human K562 cells assessed as accumulation at G2/M phase at 1 uM after 24 hrs using propidium iodide staining by flow cytometry; assay type: functional
K562 [16] = test: Cell cycle arrest in human K562 cells assessed as accumulation at Sub-G1 phase at 1 uM after 24 hrs using propidium iodide staining by flow cytometry; assay type: functional
K562 [17] = test: Induction of apoptosis in human K562 cells assessed as morphological changes at 1 to 10 uM after 48 hrs using DAPI staining by fluorescent microscopic analysis; assay type: functional, cell-based
K562 [18] = test: Induction of apoptosis in human K562 cells assessed as formation of fragmented DNA at 1 to 10 uM after 48 hrs using ethidium bromide staining by agarose gel electrophoresis; assay type: functional, cell-based
K562 [19] = test: Induction of apoptosis in human K562 cells assessed as activation of caspase-3 activity after 48 hrs by immunoblot analysis; assay type: functional, cell-based
K562 [20] = test: Induction of apoptosis in human K562 cells assessed as PARP cleavage after 48 hrs by immunoblot analysis; assay type: functional, cell-based

Row | Compound | Activity (MCF7 [1]) [%] | Activity (NCI-H460 [2]) [%] | Activity (SF-268 [3]) [%] | GI50 (MCF7 [4]) [µM] | GI50 (NCI-H460 [5]) [µM] | GI50 (SF-268 [6]) [µM] | GI50 at 72 h [7] [µM] | RatioGI50 (MCF7 [8]) | RatioGI50 (NCI-H460 [9]) | RatioGI50 (SF-268 [10]) | GI50 (K562 [11]) [µM] | RatioGI50 (K562 [12]) | Activity (K562 [13]) [%] | Activity (K562 [14]) [%] | Activity (K562 [15]) [%] | Activity (K562 [16]) [%] | Activity (K562 [17]) | Activity (K562 [18]) | Activity (K562 [19]) | Activity (K562 [20])
1 | O=C1c2ccccc2/C(=N/O)c2ccoc21 | 10 | 5 | 16 | 12.3 | 7.71 | 8.85 | > 100 | >8.13 | >12.97 | >11.3 | 0.82 | >121.95 | 37.7 | 4.4 | 58 | 4.41 | – | – | – | –
2 | O=C1c2ccccc2/C(=N/c2ccc(F)cc2)c2ccoc21 | 75 | 67 | 77 | – | – | – | – | – | – | – | – | – | – | – | – | – | – | – | – | –
3 | O=C1C(=O)c2ccoc2-c2ccccc21 | 0 | -1 | 0 | 6.42 | 6.38 | 6.38 | 5.77 | 0.9 | 0.9 | 0.9 | 0.64 | 9.02 | 36.1 | 51.2 | 12.7 | 3.75 | – | – | – | –
4 | Cc1ccc(/N=C2/c3ccccc3/C(=N/c3ccc(C)cc3)c3occc32)cc1 | 104 | 104 | 118 | – | – | – | – | – | – | – | – | – | – | – | – | – | – | – | – | –
5 | Clc1ccc(/N=C2/c3ccccc3/C(=N/c3ccc(Cl)cc3)c3occc32)cc1 | 109 | 112 | 116 | – | – | – | – | – | – | – | – | – | – | – | – | – | – | – | – | –
6 | O=C1c2ccccc2/C(=N/OCCN2CCOCC2)c2ccoc21 | 97 | 68 | 90 | – | – | – | – | – | – | – | – | – | – | – | – | – | – | – | – | –
7 | O=[N+]([O-])c1ccc(/N=C2/c3ccccc3/C(=N/c3ccc([N+](=O)[O-])cc3)c3occc32)cc1 | 111 | 117 | 118 | – | – | – | – | – | – | – | – | – | – | – | – | – | – | – | – | –
8 | O=C1c2ccccc2/C(=N/OCCN2CCCC2)c2ccoc21 | 72 | 51 | 58 | – | – | – | – | – | – | – | – | – | – | – | – | – | – | – | – | –
9 | O=C1c2ccccc2/C(=N/c2ccccc2)c2ccoc21 | 74 | 65 | 74 | – | – | – | – | – | – | – | – | – | – | – | – | – | – | – | – | –
10 | c1ccc(/N=C2/c3ccccc3/C(=N/c3ccccc3)c3occc32)cc1 | 111 | 111 | 102 | – | – | – | – | – | – | – | – | – | – | – | – | – | – | – | – | –
11 | COc1cccc2c1C(=O)c1c(O)c3c(c(O)c1C2=O)C[C@@](O)(C(C)=O)C[C@@H]3O[C@H]1C[C@H](N)[C@H](O)[C@H](C)O1 [DAUNORUBICIN] | 30 | 15 | 16 | 0.86 | 0.38 | 0.6 | 1.77 | 2.06 | 4.66 | 2.95 | 0.0074 | 239 | – | – | – | – | – | – | – | –
12 | Br.NCCCO/N=C1/c2ccccc2C(=O)c2occc21 | 10 | 44 | 15 | 12.6 | 7.19 | 9.02 | 40.9 | 3.24 | 5.69 | 4.53 | 6.62 | 6.18 | 33.5 | 3.2 | 63.3 | 4.19 | – | – | – | –
13 | CC(=O)O/N=C1/c2ccccc2C(=O)c2occc21 | 10 | 5 | 18 | 13.3 | 7.46 | 7.9 | > 100 | >7.51 | >13.4 | >12.66 | 8.59 | >11.64 | 29 | 30.2 | 41.9 | 5.82 | – | – | – | –
14 | CC[C@@]1(O)C(=O)OCc2c1cc1n(c2=O)Cc2cc3ccccc3nc2-1 [CAMPTOTHECIN] | 33 | 1 | 25 | 0.57 | 0.03 | 0.19 | 0.99 | 1.74 | 33 | 5.21 | 0.06 | 16.5 | – | – | – | – | – | – | – | –
15 | O=C1c2ccccc2/C(=N/OCc2ccccc2)c2ccoc21 | 93 | 85 | 103 | – | – | – | – | – | – | – | – | – | – | – | – | – | – | – | – | –
16 | COc1ccc(/N=C2/c3ccccc3/C(=N/c3ccc(OC)cc3)c3occc32)cc1 | 86 | 90 | 85 | – | – | – | – | – | – | – | – | – | – | – | – | – | – | – | – | –
17 | O=C1c2ccccc2C(=O)c2occc21 | 1 | 2 | 16 | 5.92 | 5.07 | 5.65 | 14.8 | 2.5 | 2.92 | 2.62 | 0.65 | 22.82 | 27.4 | 29.4 | 43.2 | 8.24 | – | – | – | –
18 | CN(C)CCCO/N=C1/c2ccccc2C(=O)c2occc21 | 74 | 51 | 54 | – | – | – | – | – | – | – | – | – | – | – | – | – | – | – | – | –
19 | FC(F)(F)c1ccc(/N=C2/c3ccccc3/C(=N/c3ccc(C(F)(F)F)cc3)c3occc32)cc1 | 111 | 115 | 105 | – | – | – | – | – | – | – | – | – | – | – | – | – | – | – | – | –
20 | O=C1c2ccccc2/C(=N/OCCN2CCCCC2)c2ccoc21 | 87 | 79 | 64 | – | – | – | – | – | – | – | – | – | – | – | – | – | – | – | – | –
21 | CN(C)CCO/N=C1/c2ccccc2C(=O)c2occc21 | 78 | 51 | 53 | – | – | – | – | – | – | – | – | – | – | – | – | – | – | – | – | –
22 | Fc1ccc(/N=C2/c3ccccc3/C(=N/c3ccc(F)cc3)c3occc32)cc1 | 102 | 103 | 118 | – | – | – | – | – | – | – | – | – | – | – | – | – | – | – | – | –
23 | CCN(CC)CCOC(=O)c1ccc(/N=C2/c3ccccc3/C(=N/c3ccc(C(=O)OCCN(CC)CC)cc3)c3occc32)cc1 | -1 | -1 | 18 | 2.6 | 2.23 | 4.1 | 1.97 | 0.76 | 0.88 | 0.49 | 0.63 | 3.13 | 40.4 | 7.1 | 52.5 | 5.56 | – | – | – | –
24 | CO/N=C1/c2ccccc2C(=O)c2occc21 | 36 | 4 | 22 | 10.2 | 6.76 | 16.5 | > 100 | >9.85 | >14.79 | >6.05 | 0.6 | >166.67 | 26.1 | 35.7 | 38.2 | 4.8 | Active | Active | Dose-dependent effect | Dose-dependent effect
